From patent publication US20200016136A1 (VIIV HEALTHCARE UK (NO. 5) LIMITED, priority 2017, published 2020)

Test system: NL-RLuc virus (recombinant NL4-3 HIV with Renilla Luciferase gene)
Assay: Inhibition of HIV replication (NL-RLuc virus in MT-2 cells, luciferase readout)
Format: cell-based, Human immunodeficiency virus (HIV)
Settings: MT2, 120 h
Method in brief: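 MT-2 cells infected with NL4-3-derived virus carrying Renilla luciferase in place of part of nef, grown 5 days with serial compound dilutions in RPMI 1640/10% FBS. Virus growth read as luciferase expression. EC50 from median effect equation, at least 2 experiments.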

| Compound | EC50 [nM] |
| --- | --- |
| Cc1nc(CN2CCC3(CCC3)CC2)c(-c2ccc3c(c2)CCN(c2nccc(-c4cnccn4)n2)C3)c(N2CCC(C)(C)CC2)c1[C@H](OC(C)(C)C)C(=O)O [Example 166, (S)-2-(6-(7-Azaspiro[3.5]nonan-7-ylmethyl)-4-(4,4-dimethylpiperidin-1-yl)-2-methyl-5-(2-(4-(pyrazin-2-yl)pyrimidin-2-yl)-1,2,3,4-tetrahydroisoquinolin-6-yl)pyridin-3-yl)-2-(tert-butoxy)acetic Acid] | 0.6 |
| Cc1nc(C)c([C@H](OC(C)(C)C)C(=O)O)c(N2CCC(C)(C)CC2)c1-c1ccc2c(c1)CCN(c1cc(N3CCC(C(C)(C)O)CC3)ncc1F)C2 [Example 104, (S)-2-(tert-Butoxy)-2-(4-(4,4-dimethylpiperidin-1-yl)-5-(2-(5-fluoro-2-(4-(2-hydroxypropan-2-yl)piperidin-1-yl)pyridin-4-yl)-1,2,3,4-tetrahydroisoquinolin-6-yl)-2,6-dimethylpyridin-3-yl)acetic Acid] | 10 |
| Cc1nc(C)c([C@H](OC(C)(C)C)C(=O)O)c(N2CCC(C)(C)CC2)c1-c1ccc2c(c1)CCN(c1ccnc(N3C4CCC3COC4)n1)C2 [Example 31, (2S)-2-(tert-Butoxy)-2-[4-(4,4-dimethylpiperidin-1-yl)-2,6-dimethyl-5-[2-(2-{3-oxa-8-azabicyclo[3.2.1]octan-8-yl}pyrimidin-4-yl)-1,2,3,4-tetrahydroisoquinolin-6-yl]pyridin-3-yl]acetic Acid] | 2 |
| Cc1ccc2c(n1)oc1c(N3CCc4cc(-c5cnc(C)c([C@H](OC(C)(C)C)C(=O)O)c5N5CCC(C)(C)CC5)ccc4C3)ncnc12 [Example 47, (2S)-2-(tert-Butoxy)-2-[4-(4,4-dimethylpiperidin-1-yl)-2-methyl-5-(2-{11-methyl-8-oxa-3,5,10-triazatricyclo[7.4.0.0^2,7]trideca-1(9),2,4,6,10,12-hexaen-6-yl}1,2,3,4tetrahydroisoquinolin-6-yl)pyridin-3-yl]acetic Acid] | 1 |
| Cc1cccc(Cl)c1CN1CCc2cc(-c3cnc(Cl)c([C@H](OC(C)(C)C)C(=O)O)c3N3CCC(C)(C)CC3)ccc2C1 [Example 102, (S)-2-(tert-Butoxy)-2-(2-chloro-5-(2-(2-chloro-6-methylbenzyl)-1,2,3,4-tetrahydroisoquinolin-6-yl)-4-(4,4-dimethylpiperidin-1-yl)pyridin-3-yl)acetic Acid] | 8 |
| CC1(C)CCN(c2c(-c3ccc4c(c3)CCN(c3ncnc5c3oc3ccccc35)C4)c(CO)nc(Cl)c2[C@H](OC(C)(C)C)C(=O)O)CC1 [Example 95, (S)-2-(5-(2-(Benzofuro[3,2-d]pyrimidin-4-yl)-1,2,3,4-tetrahydroisoquinolin-6-yl)-2-chloro-4-(4,4-dimethylpiperidin-1-yl)-6-(hydroxymethyl)pyridin-3-yl)-2-(tert-butoxy)acetic acid] | 1 |
| Cc1cccc(Cl)c1CN1CCc2cc(-c3c(NCCCN4CCCCC4)nc(C)c([C@H](OC(C)(C)C)C(=O)O)c3N3CCC(C)(C)CC3)ccc2C1 [Example 10, (S)-2-(tert-Butoxy)-2-(5-(2-(2-chloro-6-methylbenzyl)-1,2,3,4-tetrahydroisoquinolin-6-yl)-4-(4,4-dimethylpiperidin-1-yl)-2-methyl-6-((3-(piperidin-1-yl)propyl)amino)pyridin-3-yl)acetic Acid] | 2 |
| CC1(C)CCN(c2c(-c3ccc4c(c3)CCN(c3nccc(N5CCOCC5)n3)C4)c(CO)nc(Cl)c2[C@H](OC(C)(C)C)C(=O)O)CC1 [Example 151, (S)-2-(tert-Butoxy)-2-(2-chloro-4-(4,4-dimethylpiperidin-1-yl)-6-(hydroxymethyl)-5-(2-(4-morpholinopyrimidin-2-yl)-1,2,3,4-tetrahydroisoquinolin-6-yl)pyridin-3-yl)acetic Acid] | 2 |
| Cc1nc(C)c([C@H](OC(C)(C)C)C(=O)O)c(N2CCC(C)(C)CC2)c1-c1ccc2c(c1)CCN(c1cc(N3CCN(C)CC3)ncn1)C2 [Example 129, (S)-2-(tert-Butoxy)-2-(4-(4,4-dimethylpiperidin-1-yl)-2,6-dimethyl-5-(2-(6-(4-methylpiperazin-1-yl)pyrimidin-4-yl)-1,2,3,4-tetrahydroisoquinolin-6-yl)pyridin-3-yl)acetic Acid] | 12 |
| Cc1nc(C)c([C@H](OC(C)(C)C)C(=O)O)c(N2CCC(C)(C)CC2)c1-c1ccc2c(c1)CCN(c1nccc(N3CCN(CCO)CC3)n1)C2 [Example 69, (S)-2-(tert-Butoxy)-2-(4-(4,4-dimethylpiperidin-1-yl)-5-(2-(4-(4-(2-hydroxyethyl)piperazin-1-yl)pyrimidin-2-yl)-1,2,3,4-tetrahydroisoquinolin-6-yl)-2,6-dimethylpyridin-3-yl)acetic Acid] | 18 |
| Cc1nc(C)c([C@H](OC(C)(C)C)C(=O)O)c(N2CCC(C)(C)CC2)c1-c1ccc2c(c1)CCN(c1ncnc(N3CCC(O)CC3)n1)C2 [Example 61, (S)-2-(tert-Butoxy)-2-(4-(4,4-dimethylpiperidin-1-yl)-5-(2-(4-(4-hydroxypiperidin-1-yl)-1,3,5-triazin-2-yl)-1,2,3,4-tetrahydroisoquinolin-6-yl)-2,6-dimethylpyridin-3-yl)acetic Acid] | 2 |
| CCOc1cc(N2CCc3cc(-c4c(C)nc(C)c([C@H](OC(C)(C)C)C(=O)O)c4N4CCC(C)(C)CC4)ccc3C2)nc(C)n1 [Example 65, (S)-2-(tert-Butoxy)-2-(4-(4,4-dimethylpiperidin-1-yl)-5-(2-(6-ethoxy-2-methylpyrimidin-4-yl)-1,2,3,4-tetrahydroisoquinolin-6-yl)-2,6-dimethylpyridin-3-yl)acetic Acid] | 19 |
